Measurements from patent US20070275960A1, “Phenyl and pyridyl compounds for inflammation and immune-related uses” (Synta Pharmaceuticals Corp., priority 2006, published 2007).
pIC50: −log10 of the molar value. Structures can show the parent of a compound that is named as a salt.

Test system: IL-2 production
Experiment: Inhibition of IL-2 production in PHA-activated Jurkat cells (ELISA)
Assay type: cell-based
Settings: PHA 2.5 μg/mL, 20 hours at 37° C., IL-2 by ELISA
Description: Jurkat cells were placed in a 96 well plate (0.5 million cells per well in 1% FBS medium) then a test compound of this invention was added at different concentrations. After 10 minutes, the cells were activated with PHA (final concentration 2.5 μg/mL) and incubated for 20 hours at 37° C. under CO2. The final volume was 200 μL. Following incubation, the cells were centrifuged and the supernatants collected and stored at −70° C. prior to assaying for IL-2 production. A commercial ELISA kit (IL-2 Eli-pair, Diaclone Research, Besancon, France) was used to detect production of IL-2, from which dose response curves were obtained. The IC50 value was calculated as the concentration at which 50% of maximum IL-2 production after stimulation was inhibited versus a non-stimulation control.

Compound | pIC50 (Homo sapiens, Jurkat, 20 h) | further results
Cc1cc(-c2ncco2)sc1-c1ccc(NC(=O)c2c(F)cccc2F)cc1 [Compound 39, 2,6-Difluoro-N-[4-(3-methyl-5-oxazol-2-yl-thiophen-2-yl)-phenyl]-benzamide] | 9.00 | 
Cc1cncnc1C(=O)Nc1ccc(-c2sc(-c3ccno3)cc2C)cc1 [Compound 107, 5-Methyl-pyrimidine-4-carboxylic acid [4-(3-methyl-5-isoxazol-5-yl-thiophen-2-yl)-phenyl]-amide] | 8.55 | 
Cc1nc(N2CCOCC2)sc1-c1ccc(NC(=O)c2c(F)cccc2F)cc1 [Compound 9, 2,6-Difluoro-N-[4-(4-methyl-2-morpholin-4-yl-thiazol-5-yl)-phenyl]-benzamide] | 6.97 | 
COC(=O)c1cc(-c2ccc(NC(=O)c3c(F)cccc3F)cc2)c(C)o1 [Compound 8, 4-[4-(2,6-Difluoro-benzoylamino)-phenyl]-5-methyl-furan-2-carboxylic acid methyl ester] | 8.15 | 
COC(=O)c1cc(-c2ccc(NC(=O)c3c(F)cccc3F)cc2)c(C)s1 [Compound 1, 4-[4-(2,6-Difluoro-benzoylamino)-phenyl]-5-methyl-thiophene-2-carboxylic acid methyl ester] | 9.00 | 
Cc1cc(-c2cncnc2)sc1-c1ccc(NC(=O)c2snnc2C)cc1 [Compound 98, 4-Methyl-[1,2,3]thiadiazole-5-carboxylic acid [4-(3-methyl-5-pyrimidin-5-yl-thiophen-2-yl)-phenyl]-amide] | 8.03 | 
COC(=O)c1nc(C)c(-c2ccc(NC(=O)c3c(F)cccc3F)cc2)s1 [Compound 121, 2,6-Difluoro-N-[4-(4-methyl-2-methoxycarbonyl-thiazol-5-yl)-phenyl]-benzamide] | 6.88 | 
Cc1cc(-c2ccno2)sc1-c1ccc(NC(=O)c2ccnn2C)cc1 [Compound 104, 1-Methyl-1H-pyrazol-5-carboxylic acid [4-(3-methyl-5-isoxazol-5-yl-thiophen-2-yl)-phenyl]-amide] | < 6.00 | 
Cc1cc(-c2ccno2)sc1-c1ccc(NC(=O)c2cccn2C)cc1 [Compound 103, 1-Methyl-1H-pyrrol-2-carboxylic acid [4-(3-methyl-5-isoxazol-5-yl-thiophen-2-yl)-phenyl]-amide] | 8.52 | 
Cc1cc(-c2ccno2)sc1-c1ccc(NC(=O)c2cnsc2)cc1 [Compound 105, Isothiazol-4-carboxylic acid [4-(3-methyl-5-isoxazol-5-yl-thiophen-2-yl)-phenyl]-amide] | 8.12 | 
Cc1cc(-c2ccccn2)sc1-c1ccc(NC(=O)c2snnc2C)cc1 [Compound 119, 4-Methyl-[1,2,3]thiadiazole-5-carboxylic acid [4-(3-methyl-5-pyridin-2-yl-thiophen-2-yl)-phenyl]-amide] |  | pIC50: 8.32
Cc1cc(-c2cnco2)sc1-c1ccc(NC(=O)c2cccn2C)cc1 [Compound 116, 1-Methyl-1H-pyrrol-2-carboxylic acid [4-(3-methyl-5-oxazol-5-yl-thiophen-2-yl)-phenyl]-amide] | 8.32 | 
Cc1cc(-c2ccccn2)sc1-c1ccc(NC(=O)c2snnc2C)cc1 [Compound 100, 4-Methyl-[1,2,3]thiadiazole-5-carboxylic acid [4-(3-methyl-5-pyridin-2-yl-thiophen-2-yl)-phenyl]-amide, hydrochloride] |  | pIC50 (hydrochloride): 7.98
CCOC(=O)c1nc(-c2ccc(NC(=O)c3c(F)cccc3F)cc2)c(C)s1 [Compound 123, 2,6-Difluoro-N-[4-(5-methyl-2-ethoxycarbonyl-thiazol-4-yl)-phenyl]-benzamide] | 6.91 | 
COC(=O)c1cc(C)c(-c2ccc(NC(=O)c3c(F)cccc3F)cc2)s1 [Compound 4, 5-[4-(2,6-Difluoro-benzoylamino)-phenyl]-4-methyl-thiophene-2-carboxylic acid methyl ester] | 9.00 | 
Cc1cnccc1C(=O)Nc1ccc(-c2sc(-c3ncco3)cc2C)cc1 [Compound 93, 3-Methyl-N-[4-(3-methyl-5-oxazol-2-yl-thiophen-2-yl)-phenyl]-isonicotinamide] | 8.52 | 
Cc1cnccc1C(=O)Nc1ccc(-c2sc(-c3nccs3)cc2C)cc1 [Compound 111, 3-Methyl-N-[4-(3-methyl-5-thiazol-2-yl-thiophen-2-yl)-phenyl]-isonicotinamide] | 8.06 | 
Cc1ncsc1-c1ccc(NC(=O)c2c(F)cccc2F)cc1 [Compound 120, 2,6-Difluoro-N-[4-(4-methyl-thiazole-5-yl)-phenyl]-benzamide] | < 6.00 | 
Cc1cnccc1C(=O)Nc1ccc(-c2sc(-c3cccnc3)cc2C)cc1 [Compound 96, 3-Methyl-N-[4-(3-methyl-5-pyridin-3-yl-thiophen-2-yl)-phenyl]-isonicotinamide] | 8.68 | 
Cc1cnccc1C(=O)Nc1ccc(-c2sc(N3CCOCC3)nc2C)cc1 [Compound 10, 3-Methyl-N-[4-(4-methyl-2-morpholin-4-yl-thiazol-5-yl)-phenyl]-isonicotinamide] | 6.63 | 

Compound | pIC50 (Homo sapiens, Jurkat, 20 h) | further results
Cc1cc(-c2cnco2)sc1-c1ccc(NCc2ccncc2F)cc1 [Compound 129, (3-Fluoro-pyridin-4-ylmethyl)-[4-(5-oxazol-5-yl-3-methyl-thiophen-2-yl)-phenyl]-amine] | 7.13 | 
Cc1cnccc1C(=O)Nc1ccc(-c2sc(-c3ccno3)cc2C)cc1 [Compound 94, 3-Methyl-N-[4-(3-methyl-5-isoxazol-5-yl-thiophen-2-yl)-phenyl]-isonicotinamide] | 8.28 | 
Cc1cnccc1C(=O)Nc1ccc(-c2sc(-c3cnco3)cc2Cl)cc1 [Compound 112, 3-Methyl-N-[4-(3-chloro-5-oxazol-5-yl-thiophen-2-yl)-phenyl]-isonicotinamide] | 8.17 | 
Cc1cc(-c2ccno2)sc1-c1ccc(NCc2ccncc2F)cc1 [Compound 128, (3-Fluoro-pyridin-4-ylmethyl)-[4-(5-isoxazol-5-yl-3-methyl-thiophen-2-yl)-phenyl]-amine] | 7.72 | 
Cc1cc(-c2cnco2)sc1-c1ccc(NC(=O)c2scnc2Cl)cc1 [Compound 110, 4-Chloro-thiazol-5-carboxylic acid [4-(3-methyl-5-oxazol-5-yl-thiophen-2-yl)-phenyl]-amide] | 8.12 | 
Cc1cnccc1C(=O)Nc1ccc(-c2sc(-c3ncco3)cc2C)cc1 [Compound 109, 3-Methyl-N-[4-(3-methyl-5-oxazol-2-yl-thiophen-2-yl)-phenyl]-isonicotinamide] |  | pIC50: 8.57
Cc1cc(-c2ccno2)sc1-c1ccc(NC(=O)c2cnns2)cc1 [Compound 102, [1,2,3]thiadiazole-5-carboxylic acid [4-(3-methyl-5-isoxazol-5-yl-thiophen-2-yl)-phenyl]-amide] | 7.66 | 
Cc1cc(NC(=O)c2c(F)cccc2F)ccc1-c1nc(C(F)(F)F)cs1 [Compound 91, 2,6-Difluoro-N-[3-methyl-4-(4-trifluoromethyl-thiazole-2-yl)-phenyl]-benzamide] | < 6.00 | 
Cc1cnccc1C(=O)Nc1ccc(-c2sc(-c3ccncc3)cc2C)cc1 [Compound 101] | 8.40 | 
Cc1cc(-c2ncco2)sc1-c1ccc(NC(=O)c2snnc2C)cc1 [Compound 92, 4-Methyl-[1,2,3]thiadiazole-5-carboxylic acid [4-(3-methyl-5-oxazol-2-yl-thiophen-2-yl)-phenyl]-amide] | 8.40 | 
Cc1cnccc1C(=O)Nc1ccc(-c2cc(-c3ncco3)sc2C)cc1 [Compound 124, 3-Methyl-N-[4-(2-methyl-5-oxazol-2-yl-thiophen-3-yl)-phenyl]-isonicotinamide] | 8.07 | 
Cc1cc(-c2ccno2)sc1-c1ccc(NC(=O)c2csnn2)cc1 [Compound 106, [1,2,3]thiadiazol-4-carboxylic acid [4-(3-methyl-5-isoxazol-5-yl-thiophen-2-yl)-phenyl]-amide] | 7.08 | 
Cc1cnccc1C(=O)Nc1ccc(-c2sc(-c3ccno3)cc2Cl)cc1 [Compound 113, 3-Methyl-N-[4-(3-chloro-5-isoxazol-5-yl-thiophen-2-yl)-phenyl]-isonicotinamide] | 8.00 | 
Cc1sc(-c2cnco2)cc1-c1ccc(NC(=O)c2c(F)cccc2F)cc1 [Compound 3, 2,6-Difluoro-N-[4-(2-methyl-5-oxazol-5-yl-thiophen-3-yl)-phenyl]-benzamide] | 8.52 | 
Cc1sc(-c2ncco2)cc1-c1ccc(NC(=O)c2c(F)cccc2F)cc1 [Compound 122, 2,6-Difluoro-N-[4-(2-methyl-5-oxazol-2yl-thiophen-3-yl)-phenyl]-benzamide] | 8.72 | 
Cc1cc[nH]c1C(=O)Nc1ccc(-c2sc(-c3ccno3)cc2C)cc1 [Compound 117, 3-Methyl-1H-pyrrol-2-carboxylic acid [4-(3-methyl-5-isoxazol-5-yl-thiophen-2-yl)-phenyl]-amide] | 7.31 | 
Cc1cnccc1C(=O)Nc1ccc(-c2sc(-c3ccno3)cc2C)cc1 [Compound 95, 3-Methyl-N-[4-(3-methyl-5-isoxazol-5-yl-thiophen-2-yl)-phenyl]-isonicotinamide, hydrochloride] |  | pIC50 (hydrochloride): 8.36
Cc1cc(-c2cnco2)sc1-c1ccc(NC(=O)Nc2ccncc2F)cc1 [Compound 127, 1-(3-fluoro-pyridin-4-yl)-3-[4-(5-oxazol-5-yl-3-methyl-thiophen-2-yl)-phenyl]-urea] | 7.39 | 
Cc1cc(-c2cnco2)sc1-c1ccc(NC(=O)Nc2c(F)cccc2F)cc1 [Compound 126, 1-(2,6-difluoro-phenyl)-3-[4-(5-oxazol-5-yl-3-methyl-thiophen-2-yl)-phenyl]-urea] | 8.62 | 
